Experimental data taken from patent US6649763B1, “Optically active quinoline carboxylic acid derivatives with 7-pyrrolidine substituents causing optical activity and a process for the preparation thereof” (Dong Wha Pharm. Ind. Co., Ltd., priority 1999, dated 2003).

What was measured:
[1] = system: Staphylococcus epidermidis 319; test: Antibacterial activity in vitro (MIC, agar dilution); format: cell-based; conditions: resistant strain Staphylococcus epidermidis 319
Protocol: (§1) The optically active quinoline carboxylic acid derivatives of the present invention were tested as to whether they could be useful as antibacterial compounds. In this regard, the compounds were measured for minimum inhibitory concentration (MIC: unit μg/ml) according to an agar dilution process (Hoechst 345) in which Muller-Hinton agars were diluted two fold. For comparison, ciprofloxacin and sparfloxacin were used as controls. Corresponding enantiomers and racemates of the compounds of interest were also used as comparative ones. Bacteria were inoculated at an amount of about 10^7 cfu/ml onto each agar. 18 hours after the inoculation at 37° C., the growth of the bacteria was observed. As to methicillin-resistant strains, their growth was observed 48 hours after the inoculation at […]. Hoechst standard strains were used as the test bacteria.

[2] = system: Staphylococcus aureus 693E; test: as above; format: cell-based; conditions: resistant strain Staphylococcus aureus 693E
Protocol: as §1

[3] = system: Staphylococcus aureus 256E; test: as above; format: cell-based; conditions: resistant strain Staphylococcus aureus 256E
Protocol: as §1

[4] = system: Staphylococcus aureus 293; test: as above; format: cell-based; conditions: resistant strain Staphylococcus aureus 293
Protocol: as §1

[5] = system: Staphylococcus aureus 241; test: as above; format: cell-based; conditions: resistant strain Staphylococcus aureus 241
Protocol: as §1

[6] = system: Staphylococcus aureus 208E; test: as above; format: cell-based; conditions: resistant strain Staphylococcus aureus 208E
Protocol: as §1

[7] = system: Staphylococcus aureus 692E; test: as above; format: cell-based; conditions: resistant strain Staphylococcus aureus 692E
Protocol: as §1

[8] = system: Staphylococcus aureus 121E; test: as above; format: cell-based; conditions: resistant strain Staphylococcus aureus 121E
Protocol: as §1

[9] = system: Staphylococcus epidermidis 329; test: as above; format: cell-based; conditions: resistant strain Staphylococcus epidermidis 329
Protocol: as §1

[10] = system: Staphylococcus aureus 690E; test: as above; format: cell-based; conditions: resistant strain Staphylococcus aureus 690E
Protocol: as §1

[11] = system: Staphylococcus aureus 88E; test: as above; format: cell-based; conditions: resistant strain Staphylococcus aureus 88E
Protocol: as §1

[12] = system: Staphylococcus aureus 303; test: as above; format: cell-based; conditions: resistant strain Staphylococcus aureus 303
Protocol: as §1

[13] = system: Staphylococcus aureus 179; test: as above; format: cell-based; conditions: resistant strain Staphylococcus aureus 179
Protocol: as §1

Phototoxicity test = format: in vivo; conditions: CD-1 female mice, oral 50 mg/kg; for Thickness of mice's ears after UV exposure, After 24 hr / Thickness of mice's ears after UV exposure, After 48 hr: UVA light source; for Thickness of mice's ears after UV exposure, After 24 hr / Thickness of mice's ears after UV exposure, After 48 hr / Thickness of mice's ears, Before UV exposure: 50 mg/kg; for edema and erythema observed after UV exposure / increase in ear thickness compared with before the UV exposure: after 48 hours of the UV exposure; for Thickness of mice's ears, Before UV exposure: baseline before UVA
Protocol: It is known that the presence of a halogen atom at the 8-position of the quinolone nuclei causes phototoxicity.
After 16 hours of starvation, CD-1 female mice were orally administered with a dose of 50 mg/kg of the compounds and allowed to be exposed for 4.5 hours to a UVA light source. The mice were located 15 cm away from the light source. Whether the mice were damaged in their ears was adopted as a main factor for the phototoxicity and determined after 24 hour and 48 hour UV exposure. The edema which the mice suffered were examined by measuring the thickness changes of their ears with the aid of electronic calipers and calculating average values. Also, an observation was made as to whether the mice suffered from erythema.

[14] = listed as Racemic mixture of Example 14 compound
[15] = listed as racemate of the compound of Example 14, 50 mg/kg
[16] = listed as enantiomer of the compound of Example 14, 50 mg/kg

CO/N=C1\CN(c2c(F)c(N)c3c(=O)c(C(=O)O)cn(C4CC4)c3c2F)CC1(C)CN.Cl (racemic) [Racemate of Example 14 Compound]
minimum inhibitory concentration (MIC) [1]: 0.049 µg/mL
minimum inhibitory concentration (MIC) [2]: <0.002 µg/mL
minimum inhibitory concentration (MIC) [3]: <0.002 µg/mL
minimum inhibitory concentration (MIC) [4]: 0.025 µg/mL
minimum inhibitory concentration (MIC) [5]: 0.025 µg/mL
minimum inhibitory concentration (MIC) [6]: <0.002 µg/mL
minimum inhibitory concentration (MIC) [7]: <0.002 µg/mL
minimum inhibitory concentration (MIC) [8]: <0.002 µg/mL
minimum inhibitory concentration (MIC) [9]: 0.098 µg/mL
minimum inhibitory concentration (MIC) [10]: <0.002 µg/mL
minimum inhibitory concentration (MIC) [11]: <0.002 µg/mL
minimum inhibitory concentration (MIC) [12]: 0.025 µg/mL
minimum inhibitory concentration (MIC) [13]: 0.025 µg/mL
Thickness of mice's ears after UV exposure, After 24 hr (Phototoxicity test; [14]): 23.5 ± 1.31
Thickness of mice's ears after UV exposure, After 48 hr (Phototoxicity test; [14]): 24.4 ± 2.33
edema and erythema observed after UV exposure (Phototoxicity test; [15]): moderate edema and erythema
increase in ear thickness compared with before the UV exposure (Phototoxicity test; [15]): 39%
Thickness of mice's ears, Before UV exposure (Phototoxicity test; [14]): 17.6 ± 0.52

CO/N=C1\CN(c2nc3c(cc2F)c(=O)c(C(=O)O)cn3C2CC2)CC1(C)CN.Cl (single isomer, unassigned) [Enantiomer of Example 9 Compound]
minimum inhibitory concentration (MIC) [1]: 6.250 µg/mL
minimum inhibitory concentration (MIC) [2]: 0.025 µg/mL
minimum inhibitory concentration (MIC) [3]: 0.025 µg/mL
minimum inhibitory concentration (MIC) [4]: 1.563 µg/mL
minimum inhibitory concentration (MIC) [5]: 1.563 µg/mL
minimum inhibitory concentration (MIC) [6]: 0.049 µg/mL
minimum inhibitory concentration (MIC) [7]: 0.025 µg/mL
minimum inhibitory concentration (MIC) [8]: 0.049 µg/mL
minimum inhibitory concentration (MIC) [9]: 12.500 µg/mL
minimum inhibitory concentration (MIC) [10]: 0.025 µg/mL
minimum inhibitory concentration (MIC) [11]: 0.025 µg/mL
minimum inhibitory concentration (MIC) [12]: 0.781 µg/mL
minimum inhibitory concentration (MIC) [13]: 1.563 µg/mL

CO/N=C1\CN(c2cc3c(cc2F)c(=O)c(C(=O)O)cn3C2CC2)CC1(C)CN.Cl (single isomer, unassigned) [Enantiomer of Example 19 Compound]
minimum inhibitory concentration (MIC) [1]: 12.500 µg/mL
minimum inhibitory concentration (MIC) [2]: 0.098 µg/mL
minimum inhibitory concentration (MIC) [3]: 0.098 µg/mL
minimum inhibitory concentration (MIC) [4]: 3.125 µg/mL
minimum inhibitory concentration (MIC) [5]: 3.125 µg/mL
minimum inhibitory concentration (MIC) [6]: 0.098 µg/mL
minimum inhibitory concentration (MIC) [7]: 0.049 µg/mL
minimum inhibitory concentration (MIC) [8]: 0.098 µg/mL
minimum inhibitory concentration (MIC) [9]: 12.500 µg/mL
minimum inhibitory concentration (MIC) [10]: 0.049 µg/mL
minimum inhibitory concentration (MIC) [11]: 0.098 µg/mL
minimum inhibitory concentration (MIC) [12]: 3.125 µg/mL
minimum inhibitory concentration (MIC) [13]: 3.125 µg/mL

CO/N=C1\CN(c2c(F)c(N)c3c(=O)c(C(=O)O)cn(C4CC4)c3c2F)CC1(C)CN.Cl (single isomer, unassigned) [Enantiomer of Example 14 Compound]
minimum inhibitory concentration (MIC) [1]: 0.781 µg/mL
minimum inhibitory concentration (MIC) [2]: 0.004 µg/mL
minimum inhibitory concentration (MIC) [3]: 0.013 µg/mL
minimum inhibitory concentration (MIC) [4]: 0.195 µg/mL
minimum inhibitory concentration (MIC) [5]: 0.195 µg/mL
minimum inhibitory concentration (MIC) [6]: 0.013 µg/mL
minimum inhibitory concentration (MIC) [7]: 0.004 µg/mL
minimum inhibitory concentration (MIC) [8]: 0.013 µg/mL
minimum inhibitory concentration (MIC) [9]: 1.563 µg/mL
minimum inhibitory concentration (MIC) [10]: 0.004 µg/mL
minimum inhibitory concentration (MIC) [11]: 0.007 µg/mL
minimum inhibitory concentration (MIC) [12]: 0.195 µg/mL
minimum inhibitory concentration (MIC) [13]: 0.195 µg/mL
Thickness of mice's ears after UV exposure, After 24 hr (Phototoxicity test): 36.3 ± 3.01
Thickness of mice's ears after UV exposure, After 48 hr (Phototoxicity test): 44.5 ± 4.0
edema and erythema observed after UV exposure (Phototoxicity test; [16]): serious edema and erythema
increase in ear thickness compared with before the UV exposure (Phototoxicity test; [16]): 150%
Thickness of mice's ears, Before UV exposure (Phototoxicity test): 17.8 ± 0.89

CO/N=C1\CN(c2cc3c(cc2F)c(=O)c(C(=O)O)cn3C2CC2)CC1(C)CN.Cl (racemic) [Racemate of Example 19 Compound]
minimum inhibitory concentration (MIC) [1]: 0.781 µg/mL
minimum inhibitory concentration (MIC) [2]: 0.013 µg/mL
minimum inhibitory concentration (MIC) [3]: 0.013 µg/mL
minimum inhibitory concentration (MIC) [4]: 0.391 µg/mL
minimum inhibitory concentration (MIC) [5]: 0.391 µg/mL
minimum inhibitory concentration (MIC) [6]: 0.013 µg/mL
minimum inhibitory concentration (MIC) [7]: 0.013 µg/mL
minimum inhibitory concentration (MIC) [8]: 0.013 µg/mL
minimum inhibitory concentration (MIC) [9]: 0.781 µg/mL
minimum inhibitory concentration (MIC) [10]: 0.007 µg/mL
minimum inhibitory concentration (MIC) [11]: 0.013 µg/mL
minimum inhibitory concentration (MIC) [12]: 0.391 µg/mL
minimum inhibitory concentration (MIC) [13]: 0.391 µg/mL

CO/N=C1\CN(c2nc3c(cc2F)c(=O)c(C(=O)O)cn3C2CC2)CC1(C)CN.Cl (racemic) [Racemate of Example 9 Compound]
minimum inhibitory concentration (MIC) [1]: 0.391 µg/mL
minimum inhibitory concentration (MIC) [2]: 0.007 µg/mL
minimum inhibitory concentration (MIC) [3]: 0.007 µg/mL
minimum inhibitory concentration (MIC) [4]: 0.195 µg/mL
minimum inhibitory concentration (MIC) [5]: 0.195 µg/mL
minimum inhibitory concentration (MIC) [6]: 0.007 µg/mL
minimum inhibitory concentration (MIC) [7]: <0.002 µg/mL
minimum inhibitory concentration (MIC) [8]: 0.007 µg/mL
minimum inhibitory concentration (MIC) [9]: 0.781 µg/mL
minimum inhibitory concentration (MIC) [10]: 0.004 µg/mL
minimum inhibitory concentration (MIC) [11]: 0.007 µg/mL
minimum inhibitory concentration (MIC) [12]: 0.195 µg/mL
minimum inhibitory concentration (MIC) [13]: 0.195 µg/mL
